Laboratory results from patent US12234211B2, “Cycloolefin substituted heteroaromatic compounds and their use” (HUTCHISON MEDIPHARMA LIMITED, priority 2017, dated 2025).

What was measured:
[1] = target: T1, IDH1-R132H (Homo sapiens, UniProt O75874, R132H); assay: Fluorescent determination of IDH1-R132H cell activity (2-HG in U87MGR132H cells); format: cell-based; details: 2-HG inhibition in U87MGR132H cells transfected with IDH1-R132H mutant plasmid
T1 construct: expressed in transfected cells; host or cells: U87MG cells (U87MGR132H)

[2] = target: T2, IDH2-R140Q (Homo sapiens, UniProt P48735, R140Q); assay: Fluorescent determination of IDH2-R140Q cell activity (2-HG in U87MGR140Q cells); format: cell-based; details: 72 hours incubation, read-out: IC50 (2-HG inhibition)
T2 construct: expressed in transfected cells
T2 sequence (P48735 40-452 R140Q): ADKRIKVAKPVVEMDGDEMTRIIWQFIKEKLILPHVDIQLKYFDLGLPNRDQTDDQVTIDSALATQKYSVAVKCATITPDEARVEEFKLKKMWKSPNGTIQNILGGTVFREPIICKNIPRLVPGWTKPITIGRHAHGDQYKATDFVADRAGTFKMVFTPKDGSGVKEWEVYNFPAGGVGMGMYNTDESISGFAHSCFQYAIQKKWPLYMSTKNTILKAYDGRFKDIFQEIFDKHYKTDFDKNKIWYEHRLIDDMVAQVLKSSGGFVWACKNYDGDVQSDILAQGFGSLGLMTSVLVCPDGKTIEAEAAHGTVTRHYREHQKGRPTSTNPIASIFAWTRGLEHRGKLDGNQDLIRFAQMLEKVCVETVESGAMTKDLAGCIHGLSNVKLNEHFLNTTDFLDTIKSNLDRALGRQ
Experimental: Enzyme reaction solution: 1 mM nicotinamide adenine dinucleotide (NAD), 0.6 ng/μL D-2-hydroxyglutarate dehydrogenase (D2HGDH), 0.8 U/mL lipoamidase dehydrogenase (Diaphorase) and 60 μM Resazurin in 40 mM Tris.HCl pH 8.8 assay buffer.
Standard curve stock solution: The standard of 2-HG sodium salt was serially diluted in serum-free MEM medium to make a standard curve stock solution.
100 μL of U87MGR140Q cells were seeded at a density of 6×10^4/mL per well in a 96-well plate a.
From each well of 96-well plate a, 50 μL of the culture supernatant was transferred to the corresponding well of 96-well plate b; at the same time, 50 μL of standard curve stocking solution was added to other wells of 96-well plate b. Then 10 μl of 360 mM hydrochloric acid was added to all the wells. After shaking and mixing, the plate was placed on ice for 10 minutes, and then 10 μl of 420 mM Tris-base was added. After shaking and mixing, the plate was placed on ice for additional 5 minutes. Then the plate was centrifuged at 2500 rpm for 10 minutes.
After centrifuging, from each well of 96-well plate b, 20 μL of the supernatant was transferred to 96-well plate c. An additional 80 μL of the enzyme reaction solution was added to each well and incubated at 25° C. for 90 minutes.
A standard curve of the fluorescence value vs. the corresponding 2-HG concentration was made, and the 2-HG concentration corresponding to each concentration point of the compound was calculated, then the inhibition ratio was calculated, and the data was analyzed using XLfit5 (ID Business Solutions Limited) software to obtain the IC50 value.
The inhibition ratio was calculated as follows: Inhibition Ratio (IH %)=(1-2-HG concentration of test compound treated cells/2-HG concentration of control cells)×100%.

T1 sequence (O75874 whole entry R132H): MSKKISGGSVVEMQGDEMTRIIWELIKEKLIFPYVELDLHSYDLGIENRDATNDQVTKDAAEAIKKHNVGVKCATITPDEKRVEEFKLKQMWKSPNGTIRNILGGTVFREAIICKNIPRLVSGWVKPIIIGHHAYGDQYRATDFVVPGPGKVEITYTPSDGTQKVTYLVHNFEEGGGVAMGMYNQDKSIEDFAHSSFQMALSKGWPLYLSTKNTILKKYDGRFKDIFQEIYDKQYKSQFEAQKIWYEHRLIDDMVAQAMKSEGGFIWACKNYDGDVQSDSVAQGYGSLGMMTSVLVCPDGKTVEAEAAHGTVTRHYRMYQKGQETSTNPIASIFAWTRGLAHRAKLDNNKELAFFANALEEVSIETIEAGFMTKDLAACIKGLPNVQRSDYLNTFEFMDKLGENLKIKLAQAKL

SMILES	IC50 [1]	IC50 [2]
C[C@@H](Nc1nc(N[C@H](C)C(F)(F)F)c(F)c(C2=CC(O)CCC2)n1)C(F)(F)F (mixture of isomers) [Compound 207, 3-(5-fluoro-2,6-bis(((R)-1,1,1-trifluoropropan-2-yl)amino)pyrimidin-4-yl)cyclohex-2-en-1-ol]	1510 nM	564 nM
CCCNc1nc(N[C@H](C)C(F)(F)F)nc(C2=C(F)C(O)C(F)(F)CC2)n1 (mixture of isomers) [Compound 210]	4340 nM	93 nM
C[C@H](Nc1nc(NCC(F)(F)F)nc(C2=C(F)C(O)C(F)(F)CC2)n1)C(F)(F)F (mixture of isomers) [Compound 270]	2850 nM	109 nM
C[C@@H](Nc1nc(N[C@H](C)C(F)(F)F)nc(C2=CC(O)C(F)(F)CC2)n1)C(F)(F)F (mixture of isomers) [Compound 281]	455 nM	690 nM
[2H]C1(O)C=C(c2nc(N[C@H](C)C(F)(F)F)nc(N[C@H](C)C(F)(F)F)n2)CCC1(F)F (mixture of isomers) [Compound 282]	444 nM	343 nM
C[C@H](Nc1nc(N[C@@H](C)C(F)(F)F)nc(C2=C(F)C(O)C(F)(F)CC2)n1)C(F)(F)F (mixture of isomers) [Compound 283]	1320 nM	174 nM
C[C@H](Nc1nc(NOC(C)(C)C)nc(C2=C(F)C(O)C(F)(F)CC2)n1)C(F)(F)F (mixture of isomers) [Compound 293]	> 10000 nM	637 nM
C[C@@H](Nc1nc(NOC(C)(C)C)nc(C2=C(F)C(O)C(F)(F)CC2)n1)C(F)(F)F (mixture of isomers) [Compound 294]	9180 nM	425 nM
CONc1nc(N[C@H](C)C(F)(F)F)nc(C2=C(F)C(O)C(F)(F)CC2)n1 (mixture of isomers) [Compound 297, 2,6,6-Trifluoro-3-(4-(methoxyamino)-6-(((R)-1,1,1-trifluoropropan-2-yl)amino)-1,3,5-triazin-2-yl)cyclohex-2-en-1-ol]	> 10000 nM	2660 nM
C[C@H](Nc1nc(N[C@@H](C)C(F)(F)F)nc(C2=C(F)C(O)CCC2)n1)C(F)(F)F (mixture of isomers) [Compound 14]	1330 nM	230 nM
CCC(Nc1nc(N[C@H](C)C(F)(F)F)nc(C2=C(F)C(O)CCC2)n1)C(F)(F)F (mixture of isomers) [Compound 15]	619 nM	259 nM
CC(C)(C)ONc1nc(Nc2ccc3sncc3c2)nc(C2=C(F)C(O)CCC2)n1 (racemic) [Compound 34]	> 10000 nM	145 nM
C[C@@H](Nc1nc(NC2CCCC2)nc(C2=CC(O)CCC2)n1)C(F)(F)F (mixture of isomers) [Compound 130]	733 nM	67 nM
CC(C)CNc1nc(N[C@H](C)C(F)(F)F)nc(C2=CC(O)CCC2)n1 (mixture of isomers) [Compound 134]	2470 nM	100 nM
C[C@@H](Nc1nc(NC2CCCCC2)nc(C2=CC(O)CCC2)n1)C(F)(F)F (mixture of isomers) [Compound 136]	1340 nM	296 nM
C[C@@H](Nc1nc(N[C@H](C)C(F)(F)F)nc(C2=C(F)C(O)CCC2)n1)c1ccccc1 (mixture of isomers) [Compound 152, 2-Fluoro-3-(4-(((R)-1-phenylethyl)amino)-6-(((R)-1,1,1-trifluoropropan-2-yl)amino)-1,3,5-triazin-2-yl)cyclohex-2-en-1-ol]	2010 nM	300 nM
CC(Nc1nc(N[C@H](C)C(F)(F)F)nc(C2=C(F)C(O)CCC2)n1)C(C)(F)F (mixture of isomers) [Compound 175]	495 nM	291 nM
CC(C)Nc1nc(Nc2ccc3ccnn3c2)nc(C2=C(F)C(O)CCC2)n1 (racemic) [Compound 200]	> 10000 nM	632 nM
CC(C)Nc1nc(Nc2ccc3nscc3c2)nc(C2=C(F)C(O)CCC2)n1 (racemic) [Compound 229]	> 10000 nM	383 nM
C[C@@H](Nc1nc(N[C@H](C)C(F)(F)F)nc(C2=C(F)C(=O)C(F)CC2)n1)C(F)(F)F (mixture of isomers) [Compound 242, 3-(4,6-Bis(((R)-1,1,1-trifluoropropan-2-yl)amino)-1,3,5-triazin-2-yl)-2,6-difluoro-cyclohex-2-en-1-one]	3520 nM	802 nM
CC(C)Nc1nc(N[C@H](C)C(F)(F)F)nc(C2=C(F)C(O)C(F)CC2)n1 (single isomer, unassigned) [Compound 96]	2700 nM	675 nM
C[C@@H](Nc1nc(N[C@H](C)C(F)(F)F)nc(C2=C(F)C(O)C(F)(F)CC2)n1)C(F)(F)F (single isomer, unassigned) [Compound 198]	1890 nM	845 nM
OC1C(F)=C(c2nc(Nc3ccnc(C(F)(F)F)c3)nc(N3CC(F)(F)C3)n2)CCC1(F)F (single isomer, unassigned) [Compound 221]	> 10000 nM	487 nM
C[C@@H](Nc1nc(NCC2CC2)nc(C2=C(F)C(O)C(F)CC2)n1)C(F)(F)F (single isomer, unassigned) [Compound 225]	917 nM	36 nM
C[C@@H](Nc1nc(NCC2CC2)nc(C2=C(F)C(O)C(F)CC2)n1)C(F)(F)F (single isomer, unassigned) [Compound 226]	5120 nM	361 nM
C[C@@H](Nc1nc(NC2CC(F)(F)C2)nc(C2=C(F)C(O)C(F)CC2)n1)C(F)(F)F (single isomer, unassigned) [Compound 228]	705 nM	417 nM
CCCNc1nc(N[C@H](C)C(F)(F)F)nc(C2=C(F)C(O)[C@H](F)CC2)n1 (single isomer, unassigned) [Compound 230]	> 10000 nM	658 nM

The next lines start with the values.

IC50 [1]	IC50 [2]	SMILES
9460 nM	738 nM	C[C@H](CF)Nc1nc(N[C@H](C)C(F)(F)F)nc(C2=C(F)C(O)CCC2)n1 (mixture of isomers) [Compound 169]
6930 nM	1380 nM	C[C@@H](CF)Nc1nc(N[C@H](C)C(F)(F)F)nc(C2=C(F)C(O)CCC2)n1 (mixture of isomers) [Compound 170]
1760 nM	78 nM	C[C@@H](Nc1nc(NCC2CC2)nc(C2=C(F)C(O)C(F)(F)CC2)n1)C(F)(F)F (mixture of isomers) [Compound 209]
7360 nM	139 nM	C[C@@H](Nc1nc(NC2CC2)nc(C2=C(F)C(O)C(F)(F)CC2)n1)C(F)(F)F (mixture of isomers) [Compound 238]
> 10000 nM	94 nM	C[C@H](Nc1nc(NC2CC2)nc(C2=C(F)C(O)C(F)(F)CC2)n1)C(F)(F)F (mixture of isomers) [Compound 260]
> 10000 nM	148 nM	[2H]C1(O)C(F)=C(c2nc(NC3CC3)nc(N[C@@H](C)C(F)(F)F)n2)CCC1(F)F (mixture of isomers) [Compound 278]
9430 nM	170 nM	[2H]C1(O)C(F)=C(c2nc(NC3CC3)nc(N[C@H](C)C(F)(F)F)n2)CCC1(F)F (mixture of isomers) [Compound 279]
1220 nM	216 nM	C[C@H](Nc1nc(N[C@H](C)C(F)(F)F)nc(C2=C(F)C(O)CCC2)n1)C1CC1 (mixture of isomers) [Compound 8]
2080 nM	373 nM	C[C@@H](Nc1nc(NCC2CC(F)(F)C2)nc(C2=C(F)C(O)CCC2)n1)C(F)(F)F (mixture of isomers) [Compound 13]
280 nM	110 nM	C[C@@H](Nc1nc(NC2CC(F)(F)C2)nc(C2=C(F)C(O)CCC2)n1)C(F)(F)F (mixture of isomers) [Compound 31]
610 nM	80 nM	C[C@H](Nc1nc(NC2CC(F)(F)C2)nc(C2=C(F)C(O)CCC2)n1)C(F)(F)F (mixture of isomers) [Compound 32]
1350 nM	180 nM	C[C@@H](Nc1nc(NC2CCCC2(F)F)nc(C2=C(F)C(O)CCC2)n1)C(F)(F)F (mixture of isomers) [Compound 166]
1570 nM	268 nM	C[C@@H](Nc1nc(NCC2CCC2(F)F)nc(C2=C(F)C(O)CCC2)n1)C(F)(F)F (mixture of isomers) [Compound 171]
343 nM	96 nM	CC(Nc1nc(N[C@H](C)C(F)(F)F)nc(C2=C(F)C(O)CCC2)n1)C(F)F (mixture of isomers) [Compound 174]
